From US4747845A, “Synthetic resin matrix system for the extended delivery of drugs” (priority 1986, dated 1988)

How the values were obtained:
[1] = dog, in vivo
Description: The derived pharmacokinetic parameters included: 1, time for the maximum concentration to be reduced by 1/2 (t-1/2); 2, area under the plasma concentration curve (AUC); 3, maximum plasma concentration (C-max); 4, time to reach C-max (t-max); 5, mean resident time (MRT); and 6, percent of recovery of administered H3 dose in urine in 72 hours (U%).
Here, determination was made of the release characteristics of the DIMAC synthetic resin matrix system embodied with the drug urapidil fumerate (UPD) following oral administration to conscious dogs, in an identical procedure to that described in EXAMPLE 4.
The UPD dose administered in DIMAC matrix was 10 mg/kg, and the same dose was used in the control solution.

[2] = dog, in vivo, po
Description: Approximately 75 uCi of isotopically labelled DTZ or UPD was blended into their respective slurry prior to filling the gelatin capsule. The isotopically labelled compositions were allowed to set-up prior to rejoining the filled upper and lower capsule compartments. Curing proceeded overnight, with animal dosing performed at 8:00 a.m. the following morning. The control DIMAC matrix samples without drug were prepared in an identical manner.
Six conscious dogs, three males and three females, one of each sex in three treatment groups were used in this study. The oral dose of DTZ was 30 mg/kg, while that for UPD was 10 mg/kg.
Blood samples were drawn at 0-time immediately prior to dosing, and at 0.5, 1.0, 2.0, 4.0, 6.0, 8.0, 24, and 32 hours after oral administration of the three test preprations. One ml of plasma, suitably prepared was counted for 5-minutes for level of radioactivity (dpm).

magnitude of delayed and extended duration release indices compared with EXAMPLE 3 [1] | percent change of t1/2 of DIMAC from solution control [1] | percent change of U % (recovery of administered dose in urine in 72 hours) of DIMAC from solution control ([1]; 4320 min) | percent of dose released from DIMAC matrix during the 8-hour period [2] | time of peak plasma radioactivity ([2]; 10 mg/kg) | Substance | statistical significance of change over solution control [1]
far less | +40% | +8% | – | – | urapidil fumerate [DIMAC matrix UPD] | statistically significant change in C-max, t-max, MRT, and t-1/2
– | – | – | at least 50% | 2 h | urapidil fumerate [UPD] | –
